The source of these data is patent US11717517B2, “LSD dose identification” (Universitätsspital Basel, priority 2020, dated 2023).

Molecules are shown by their SMILES. Where two headings read alike, the source gives them in different places.

The test system of data set [1] is healthy subjects. Nature of the data set: Subjective drug effects (VAS, 5D-ASC, MEQ, AMRS), double-blind placebo-controlled cross-over study. Here is the method: (§1) Study design: The study used a double-blind, placebo-controlled, cross-over design with six experimental test sessions to investigate the responses to 1) placebo 2) 25 μg, 3) 50 μg, 4) 100 μg, 5) 200 μg LSD, and 6) 200 μg LSD after ketanserin (40 mg). The washout periods between sessions were at least 10 days. The study was registered at ClinicalTrials.gov (NCT03321136).
Participants: Sixteen healthy subjects (eight men and eight women; mean age±SD: 29±6.4 years; range: 25-52 years). Participants who were younger than 25 years old were excluded from participating in the study. Additional exclusion criteria were age >65 years, pregnancy (urine pregnancy test at screening and before each test session), personal or family (first-degree relative) history of major psychiatric disorders (assessed by the Semi-structured Clinical Interview for Diagnostic and Statistical Manual of Mental Disorders, 4th edition, Axis I disorders by a trained psychiatrist), the use of medications that can interfere with the study medications (e.g. antidepressants, antipsychotics, sedatives), chronic or acute physical illness (abnormal physical exam, electrocardiogram, or hematological and chemical blood analyses), tobacco smoking (>10 cigarettes/day), lifetime prevalence of illicit drug use >10 times (except for Δ^9-tetrahydrocannabinol), illicit drug use within the last 2 months, and illicit drug use during the study (determined by urine drug tests).
Thus, subjects ingested 2 mL of LSD solution and/or placebo (96% ethanol) per session: 1) placebo/placebo, 2) 25 μg LSD/placebo, 3) 25 μg LSD/25 μg LSD, 4) 100 μg LSD/placebo, 5) 100 μg LSD/100 μg LSD, 6. 100 μg LSD/100 μg LSD). Ketanserin was obtained as the marketed drug (KETENSIN®, Janssen) and encapsulated with opaque capsules to ensure blinding. Placebo consisted of identical opaque capsules filled with mannitol. Thus, blinding to treatment was guaranteed by using a double-dummy method, with identical capsules and vials that were filled with mannitol and ethanol, respectively, as placebo. At the end of each session and at the end of the study, the participants were asked to retrospectively guess their treatment assignment.
(§2) Study procedures: The study included a screening, six 25 hour test sessions, and an end-of-study visit. The sessions were conducted in a calm standard hospital room. Only one research subject and one investigator were present during the test sessions. The test sessions began at 7:45 AM. The subjects then underwent baseline measurements. Ketanserin (40 mg) or placebo was administered at 8:00 AM. LSD or placebo was administered at 9:00 AM. The outcome measures were repeatedly assessed for 24 hours. A standardized lunch and dinner were served at 1:30 PM and 6:00 PM, respectively. The subjects were under constant supervision by an investigator until 1:00 AM. Thus, the subjects were never alone during the first 16 hours after drug administration, and the investigator was in a room next to the subject for up to 24 hours. The subjects were sent home the next day at 9:15 AM.
Subjective drug effects: Subjective effects were assessed repeatedly using visual analog scales (VASs) 1 hour before and 0, 0.5, 1, 1.5, 2, 2.5, 3, 4, 5, 6, 7, 8, 9, 10, 11, 12, 14, 16, and 24 hours after LSD administration. […] The VASs were presented as 100-mm horizontal lines (0-100%), marked from “not at all” on the left to “extremely” on the right. The VASs for “concentration”, and “perception of time” were bidirectional (±50%). Marked from “not at all” on the left (−50), to “normal” in the middle (0), to “extremely” on the right (+50) for concentration and “slowed” (−50) and “racing” (+50) for “perception of time”.

A short description of data set [2]: Stability of oral LSD solution (isomerization to iso-LSD). Type of data set: physicochemical. Here is the method:
Each dose of LSD was formulated as a solution to be administered orally in 1 ml of 96% ethanol according to GMP (batch BZ17-2; 25 μg and 100 μg vials) and stored free in argon-prefilled vials in the dark at 4° C. The exact analytically confirmed LSD contents (mean±SD) of the 25 μg and 100 μg formulation were […], respectively, after production. Stability of the formulation for longer than the study period was documented in an identically produced previous batch (batch BZ16). […] Vials that were stored at room temperature had higher iso-LSD contents of 0%, 3.1%, 3.4%, 6.7%, and 9.5% after 2, 4, 6, 12 and 24 months, respectively. The 100 μg LSD dose of that was used in the present study would correspond to a dose of approximately 125 μg of LSD tartrate including crystal water, which is the form of LSD that is more likely to be used when acquired illegally (i.e., in blotter form) for recreational use or was used in other recent studies (Bershad et al., 2019; Yanakieva et al., 2019).

In data set [3] the test system is healthy subjects. Briefly: Autonomic and adverse effects (blood pressure, heart rate, body temperature, List of Complaints). How it is done: as §1, §2
Autonomic, adverse, and endocrine effects: Blood pressure, heart rate, and tympanic body temperature were repeatedly measured 1 hour before and 0, 0.5, 1, 1.5, 2.5, 3, 4, 5, 6, 7, 8, 9, 10, 11, 12, 14, 16, and 24 hours after drug administration as previously described in detail (Hysek et al., 2010). […] This scale yields a total adverse effects score and reliably measures physical and general discomfort.
Data analysis: Peak (Emax and/or Emin) or peak change from baseline (ΔEmax) values were determined for repeated measures. The values were then analyzed using repeated-measures analysis of variance (ANOVA), with drug as within-subjects factor, followed by Tukey post hoc comparisons using Statistica 12 software (StatSoft, Tulsa, Okla., USA). The criterion for significance was p<0.05.

A short description of data set [4]: Plasma drug concentrations and pharmacokinetic-pharmacodynamic modeling. Type of data set: in vivo, human. Here is the method:
Plasma drug concentrations: Blood was collected into lithium heparin tubes 1 hour before and 0, 0.5, 1, 2, 3, 4, 6, 8, 10, 12, 14, 16, and 24 hours after LSD administration. The blood samples were immediately centrifuged, and the plasma was subsequently stored at −80° C. until analysis. Plasma concentrations of LSD and O-H-LSD were determined using a validated ultra-high-performance liquid chromatography tandem mass spectrometry method as described previously in detail (Holze et al., 2019).
Pharmacokinetic analyses and pharmacokinetic-pharmacodynamic modeling: Pharmacokinetic parameters were estimated using a one-compartment model with first-order input, first-order elimination, and no lag time in Phoenix WinNonlin 6.4 (Certara, Princeton, N.J., USA) as described previously in detail (Holze et al., 2019).

In data set [5] the test system is brain-derived neurotrophic factor (BDNF).
Experimental: Plasma BDNF levels were measured at baseline and 6, 12, and 24 hours after drug administration using the Biosensis Mature BDNF Rapid ELISA Kit (Thebarton, Australia) (Akimoto et al., 2019).
The conditions of data set [6]: after 200 μg dose as two 100 μg capsules; Steuer et al., 2017; cited from earlier work.
The next data set has as its system healthy humans. As to conditions: cited from earlier work.
Data set [7] can be described thus: Plasma exposure to LSD and iso-LSD after LSD capsules in previous studies. As to conditions: assuming similar bioavailability.

Take `O=C(c1ccc(F)cc1)C1CCN(CCn2c(=O)[nH]c3ccccc3c2=O)CC1` [Ketanserin]: in the data set on healthy subjects [1] (ketanserin 40 mg given prior to 200 μg LSD), the “effect of ketanserin on LSD effects at the 5-HT2a receptor” value is “blocks LSD side effects”.

As to `CCN(CC)C(=O)[C@@H]1C=C2c3cccc4[nH]cc(c34)C[C@H]2N(C)C1` [LSD, D-lysergic acid diethylamide base], the “iso-LSD content (% of initial LSD content)” value in data set [2] (solution in 96% ethanol, batch BZ16, 4° C., 4 months) is on record as 0.1%; in data set [2] (solution in 96% ethanol, batch BZ16, 4° C., 6 months), 0.1%; in data set [2] (solution in 96% ethanol, batch BZ16, 4° C., 12 months), 1.3%; in data set [2] (solution in 96% ethanol, batch BZ16, 4° C., 18 months), 3.2%; in data set [2] (solution in 96% ethanol, batch BZ16, 4° C., 24 months), 3.6%; in data set [2] (vials at room temperature, 2 months) it was 0%. Also, the “iso-LSD content (% of initial LSD content)” value in data set [2] (vials at room temperature, 4 months) came out at 3.1%; in data set [2] (vials at room temperature, 6 months), 3.4%; in data set [2] (vials at room temperature, 12 months), 6.7%; in data set [2] (vials at room temperature, 24 months), 9.5%. The other decomposition products result in data set [2] (solution stored at 4° C.) is reported as “No other decomposition products were present”. Moreover, the “VAS any drug effect compared with placebo” value in the data set on healthy subjects [1] (25 μg oral, P<0.05, 16 subjects) is given as “significant”. For the same compound, in the data set on healthy subjects [1] (25, 50, 100, 200 μg oral), the “VAS good drug effect, dose dependence” value was “dose-dependent good drug effects up to the 100 μg dose”. In the data set with healthy subjects [1] (100 and 200 μg, P<0.01 for both), the “anxiety on the 5D-ASC and AMRS” value is recorded as “only the 200 μg but not the 100 μg dose of LSD induced significant anxiety”. Further, in the data set on healthy subjects [1] (P<0.05), the “anxious ego-dissolution on the 5D-ASC, 200 μg versus 100 μg” value was “greater”. Besides, in the data set with healthy subjects [1] (P<0.05), the “ego-dissolution on the VAS, 200 μg versus 100 μg” value is “significantly greater”. Also, the “subjectively negative nadir effects, 200 μg versus 100 μg” value with healthy subjects [1] (P<0.05) is given as “greater”. In the data set with healthy subjects [1] (at the 100 μg dose, no significant differences between 100 and 200 μg), the “most scales (particularly positive subjective effects) with increasing doses” value was “ceiling effect was reached”. In the data set with healthy subjects [3] (25-200 μg), the body temperature entry is “no effect”. The heart rate result in the data set on healthy subjects [3] (100 and 200 μg) is reported as “moderately but significantly increased”. Moreover, the “total acute (0-12 hours) adverse effects score on the LC compared with placebo and all other conditions” value in the data set on healthy subjects [3] (100 and 200 μg) was “increased”. For the same compound, the severe adverse events result with healthy subjects [3] (all conditions) is listed as “No severe adverse events were observed”. Moreover, the blood pressure result in the data set on healthy subjects [3] (doses of 50 μg or higher) is reported as “moderately but significantly increased”. Also, the “plasma concentrations of LSD, dose proportionality” value in data set [4] (25, 50, 100, 200 μg oral) is given as “increased proportionally with increasing doses”. In addition, the “VAS bad drug effect, 200 μg compared with 100 μg” value in data set [4] (in vivo) was “higher bad drug effects”. Also, the effect duration result in data set [4] (with increasing doses) was “longer effect durations”. The “time to offset of the LSD response” value in data set [4] (with increasing doses) is given as “increased”. In addition, the “time to onset of the LSD response” value in data set [4] (with increasing doses) was “decreased”. The “BDNF plasma concentration compared with placebo” value in data set [5] (200 μg LSD) was “significantly increased”. For the same compound, in data set [5] (200 μg LSD), the “time of peak BDNF plasma concentration” value was determined as 6 h. In addition, the “plasma BDNF” value in data set [5] (lower doses of LSD (25, 50, 100 μg)) is on record as “non-significant increases”. Also, in data set [6], the “plasma AUC24” value was 21 ng·h/mL. The “subjects with bad drug effects (50% or more on a 0-100% scale at any time point)” value was 12.5% in the data set with healthy humans (0.1 mg LSD, 3 of 24 subjects (Dolder et al., 2017)) and 56% in the data set on healthy humans (0.2 mg LSD, 9 of 16 subjects (Dolder et al., 2017)). Besides, the “subjects with transient bad drug effects” value with healthy humans (0.1 mg LSD, 7 of 24 subjects (Holze et al., 2019)) is recorded as 29%. Moreover, the “subjects with marked anxiety” value in the data set on healthy humans (0.2 mg LSD, sixteen healthy humans (Schmid et al., 2015)) is “two”. The “clinical response to 75 μg intravenous LSD versus oral 100 μg dose” value with healthy humans (previous studies (Carhart-Harris et al., 2016a; Liechti, 2017)) is “not significantly different”. For the same compound, the “AUC∞ as % of value expected from confirmed 96 μg LSD doses” value in data set [7] (100 μg capsule dose) is on record as 61%; in data set [7] (200 μg capsule dose) it was 76%.

Regarding `CCN(CC)C(=O)[C@H]1C=C2c3cccc4[nH]cc(c34)C[C@H]2N(C)C1` [iso-LSD], the “plasma AUC24” value in data set [6] is 9.2 ng·h/mL.
